Literature values, collected in patent publication US20240207338A1, “KETAMINE AND CANNABIS FOR THE TREATMENT OF EMOTIONAL DISORDERS” (Progressive Therapeutics Inc, priority 2021, published 2024).

| Compound | potency for use in anesthesia relative to R-(−)-ketamine (versus R-(−)-ketamine) | potency for use in anesthesia relative to ketamine (versus ketamine) |
| --- | --- | --- |
| CN[C@]1(c2ccccc2Cl)CCCCC1=O [S-(+)-ketamine] | twice as potent | – |
| NC1(c2ccccc2Cl)CCCCC1=O (centres unmarked) [norketamine] | – | one third the potency |
